# Experimental data as given in patent US10954221B2, “GLP-1R agonists and uses thereof” (QILU REGOR THERAPEUTICS INC., priority 2019, dated 2021).
# Tests used:
# GLP1R [1] = molecular target: T1, GLP1R (Homo sapiens, UniProt P43220); design: Emax: dose or concentration left out as unconfirmed; conditions: for β-arrestin recruitment Bmax (%): partial maximum relative effect at the highest concentration tested (top 10 μM), relative to Bmax of GLP-1 (7-37), PathHunter CHO-K1 GLP1R β-Arrestin cells; for Emax: CHO-K1, […], read-out: β-arrestin recruitment Bmax (%)
# Target sequence in this assay (P43220 24-463): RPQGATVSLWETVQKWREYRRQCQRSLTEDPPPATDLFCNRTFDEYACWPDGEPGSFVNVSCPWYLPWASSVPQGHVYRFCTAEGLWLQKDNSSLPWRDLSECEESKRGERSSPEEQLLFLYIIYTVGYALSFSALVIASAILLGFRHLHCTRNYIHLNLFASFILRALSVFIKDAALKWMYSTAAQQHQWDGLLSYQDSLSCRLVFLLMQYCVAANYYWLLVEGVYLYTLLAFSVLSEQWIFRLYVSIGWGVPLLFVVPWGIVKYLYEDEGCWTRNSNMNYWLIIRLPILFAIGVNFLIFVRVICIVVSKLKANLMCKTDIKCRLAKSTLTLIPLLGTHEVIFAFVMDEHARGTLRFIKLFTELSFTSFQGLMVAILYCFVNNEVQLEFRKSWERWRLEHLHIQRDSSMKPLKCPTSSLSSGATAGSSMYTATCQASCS
# Target sequence in this assay (P32121 whole entry partner): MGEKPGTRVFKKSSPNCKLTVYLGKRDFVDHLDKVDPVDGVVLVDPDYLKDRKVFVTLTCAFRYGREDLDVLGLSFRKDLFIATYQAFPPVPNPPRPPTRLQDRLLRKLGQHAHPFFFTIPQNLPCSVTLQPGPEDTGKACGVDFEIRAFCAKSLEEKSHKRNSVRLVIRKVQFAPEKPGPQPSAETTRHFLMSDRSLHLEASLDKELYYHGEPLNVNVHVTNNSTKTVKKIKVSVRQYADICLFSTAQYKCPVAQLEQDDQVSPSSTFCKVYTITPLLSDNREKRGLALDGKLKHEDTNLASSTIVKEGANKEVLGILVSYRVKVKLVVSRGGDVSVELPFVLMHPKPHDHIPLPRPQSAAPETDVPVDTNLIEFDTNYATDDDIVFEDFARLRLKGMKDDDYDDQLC
# Description: Frozen cells were quickly thawed and 10 mL of cell plating medium (provided by the kit) was added to thawed cells. Cells were stored in a 37° C. incubator under 5% CO2 and kept for approximately 48 hours until ready to run the assay.
# Reference and test compounds were dissolved in 100% DMSO. […] 5 μL of this solution was added to 20 μL cell medium in assay plate for a final top concentration of 10 μM. Plates were then incubated at 37° C. under 5% CO2 for 90 min.
# Following 90 min incubation, detection reagents were made up by combining 1 part Galacton Star Substrate with 5 parts Emerald II™ Solution, and 19 parts of PathHunter Cell Assay Buffer, respectively. 12.5 μl detection reagent was added to each well. The plates were then incubated at room temperature in dark for 60 min. Plates were then read on Envision for 0.1 sec/well.
# Cells were plated at a density of 1000 or 2000 cells/20 μL/well. Frozen cells were quickly thawed and added to 10 mL of cell plating medium. Cells were stored in a 37 degree incubator under 5% CO2 and left for approximately 48 hours until ready to run the assay
# Prepare 10× concentration of an agonist in serum free DMEM, and add all solutions into the compound plate. 2.5 μL of this solution was added to 20 μL cell medium in assay plate for a final top concentration of 10 μM. Plates were incubated at 37° C. under 5% CO2 for 30 min. An additional 2.5 μL of Buffer was added to the entire plate for agonist mode and incubated at 37° C. for another 90 min.
# Following 90 min incubation, detection reagents were made up as described. 12.5 μL was added to all wells. The plates were then incubated at room temperature in dark for 60 min. Plates were then read on Envision for 0.1 sec/well.
# Data analysis: GraphPad Prism 6 was used for establishment of progression curve. EC50s or IC50s were determined by 4-parameter logistic dose response equation.
# GLP1R [2] = molecular target: T1, GLP1R; assay: β-Arrestin-mediated GLP1R internalization assay (PathHunter U2OS cells); format: cell-based; design: host or cells: PathHunter engineered U2OS cells; conditions: averaged Bmax where applicable, Percentage of Control GLP-1 (7-37), top 10 μM, 180 min
# Description: A similar assay can also be used to assess the extent of signal attenuation due to GLP-1R internalization (the Internalization Assay). In this assay, activated GLP1R Internalization cells were engineered to co-express an untagged GLP1R, Enzyme Acceptor (EA) tagged β-Arrestin, and a ProLink™ (PK) tag localized to the endosomes. Activation of the GLP1R induces β-Arrestin recruitment, which leads to internalization of the Receptor/Arrestin-EA complex in PK-tagged endosomes. This forces complementation of the two β-galactosidase enzyme fragments (EA and PK) to form a functional enzyme that hydrolyzes substrate to generate a chemiluminescent signal.
# Frozen cells were quickly thawed and 10 mL of cell plating medium (provided by the kit) was added to thawed cells. Cells were stored in a 37° C. incubator and kept for approximately 48 hours until ready for the assay.
# Reference and test compounds were dissolved in 100% DMSO. […] 5 μL of this solution was added to 20 μL cell medium in assay plate for a final top concentration of 10 μM. Plates were incubated at 37° C. for 180 min.
# Following 180 min incubation, detection reagents were made up by combining 1 part Galacton Star Substrate with 5 parts Emerald II™ Solution, and 19 parts of PathHunter Cell Assay Buffer, respectively. 12.5 μL detection reagent was added to each well. The plates were then incubated at room temperature for 60 min. Plates were then read on Envision for 0.1 sec/well.
# EC50 determinations were made from agonist dose-response curves analyzed with a curve fitting program using a 4-parameter logistic dose response equation.
# Target sequence in this assay (P43220 24-463): as the sequence (P43220 24-463) above
# Target sequence in this assay (P32121 whole entry partner): as the sequence (P32121 whole entry partner) above
# GLP1R [3] = molecular target: T1, GLP1R; assay: GLP1R cAMP assay (HTRF), HEK293/GLP-1R/CRE/Luc, Clone 4
# Target sequence in this assay (P43220 24-463): as the sequence (P43220 24-463) above
# Description: GLP-1R-mediated agonist activity was determined with a cell-based functional assay utilizing an HTRF (Homogeneous Time-Resolved Fluorescence) cAMP detection kit (cAMP Dynamic 2 Assay Kit; CisBio cat #62AM4PEC) that measures cAMP levels in the cell. The method is a competitive immunoassay between native cAMP produced by the cells and exogenous cAMP labeled with the dye d2. The tracer binding is visualized by a mAb anti-cAMP labeled with Cryptate. The specific signal (i.e., energy transfer) is inversely proportional to the concentration of cAMP in either standard or experimental sample.
# The human GLP-1R coding sequence (NCBI Reference Sequence NM_002062) was subcloned into pcDNA3.1+/Hygro vector (Invitrogen) and transfected into HEK293/CRE/Luc parental cell line. A cell line stably expressing the receptor was isolated.
# Varying concentrations of each compound to be tested (in DMSO) were diluted in DMSO to obtain 200× compound working solution first and then 50 nl compounds were added to a white 384-well assay plate (Greiner 784075) with ECHO. The final DMSO concentration was 0.5%.
# Cells were removed from cryopreservation, re-suspended in 5 mL of Dulbecco's Phosphate Buffered Saline (DPBS-Sigma Cat #D8537) and centrifuged at 900×g for 5 min at 22° C. The cell pellet was then re-suspended in 1 mL of assay buffer [DPBS with 500 μM IBMX (Sigma #15879) and 0.1% BSA (Sigma #A1933). IBMX and BSA were freshly added on the day of assay]. A 10 μL sample of the cell suspension was counted on an Invitrogen Countess II to determine cell viability and cell count per mL. The remaining cell suspension was then adjusted with assay buffer to deliver 1000 viable cells per well using a Matrix Combi Multidrop reagent dispenser. 10 μL cell suspensions were added to each well
# of the assay plate which already contains compound. The plate was sealed and incubated at 37° C. with 5% CO2 for 30 minutes.
# Following the 30 minute incubation, 5 μL of labeled d2 cAMP and 5 μL of anti-cAMP antibody (both diluted 1:20 in cell lysis buffer; as described in the manufacturer's assay protocol) were added to each well of the assay plate. The plates were then incubated at room temperature and after 60 minutes, changes in the HTRF signal were read with an Envision multi-label plate reader using excitation of 330 nm and emissions of 615 and 665 nm. Raw data were converted to nM cAMP by interpolation from a cAMP standard curve (as described in the manufacturer's assay protocol) and the percent effect was determined relative to a saturating concentration of the full agonist GLP-17-37 (10 nM) included on each plate. EC50 determinations were made from agonist dose-response curves analyzed with a curve fitting program using a 4-parameter logistic dose response equation.
β-arrestin recruitment Bmax (%) (GLP1R [1]),β-arrestin internalization Bmax (POC) (GLP1R [2]),EC50 (GLP1R [3]) [µM],Emax (GLP1R [1]) [%],Structure (SMILES)
32.1,17.0,< 0.015,,"O=C(O)c1ccc2nc(Cc3ccc(-c4cccc(OCc5ccc(Cl)cc5F)n4)c(F)c3)n(C[C@@H]3CCO3)c2c1 [Compound 74, (S)-2-(4-(6-((4-chloro-2-fluorobenzyl)oxy)pyridin-2-yl)-3-fluorobenzyl)-1-(oxetan-2-ylmethyl)-1H-benzo[d]imidazole-6-carboxylic acid]"
,21.6,< 0.015,25.1,"O=C(O)c1ccc2nc(Cc3ccc(-c4cccc(OCc5ccc(Cl)cc5F)c4)c(F)c3)n(C[C@@H]3CCO3)c2c1 [Compound 76, (S)-2-((3′-((4-chloro-2-fluorobenzyl)oxy)-2-fluoro-[1,1′-biphenyl]-4-yl)methyl)-1-(oxetan-2-ylmethyl)-1H-benzo[d]imidazole-6-carboxylic acid]"
,22.5,< 0.015,39.4,"O=C(O)c1ccc2nc(Cc3ccc(-c4nc(OCc5ccc(Cl)cc5F)c(F)cc4F)c(F)c3)n(C[C@@H]3CCO3)c2c1 [Compound 77, (S)-2-(4-(6-((4-chloro-2-fluorobenzyl)oxy)-3,5-difluoropyridin-2-yl)-3-fluorobenzyl)-1-(oxetan-2-ylmethyl)-1H-benzo[d]imidazole-6-carboxylic acid]"
,7.49,< 0.015,22.7,"O=C(O)c1ccc2nc(Cc3ccc(-c4ccc(F)c(OCc5ccc(Cl)cc5F)c4)c(F)c3)n(C[C@@H]3CCO3)c2c1 [Compound 78, (S)-2-((3′-((4-chloro-2-fluorobenzyl)oxy)-2,4′-difluoro-[1,1′-biphenyl]-4-yl)methyl)-1-(oxetan-2-ylmethyl)-1H-benzo[d]imidazole-6-carboxylic acid]"
,9.25,0.015 to 0.15,19.7,"O=C(O)c1ccc2nc(Cc3ccc(-c4cc(OCc5ccc(Cl)cc5F)ccc4F)c(F)c3)n(C[C@@H]3CCO3)c2c1 [Compound 79, (S)-2-((5′-((4-chloro-2-fluorobenzyl)oxy)-2,2′-difluoro-[1,1′-biphenyl]-4-yl)methyl)-1-(oxetan-2-ylmethyl)-1H-benzo[d]imidazole-6-carboxylic acid]"
,21.2,< 0.015,31.6,"O=C(O)c1ccc2nc(Cc3ccc(-c4ccnc(OCc5ccc(Cl)cc5F)n4)c(F)c3)n(C[C@@H]3CCO3)c2c1 [Compound 80, (S)-2-(4-(2-((4-chloro-2-fluorobenzyl)oxy)pyrimidin-4-yl)-3-fluorobenzyl)-1-(oxetan-2-ylmethyl)-1H-benzo[d]imidazole-6-carboxylic acid]"
,30.6,< 0.015,37.2,"O=C(O)c1ccc2nc(Cc3ccc(-c4ncc(F)c(OCc5ccc(Cl)cc5F)n4)c(F)c3)n(C[C@@H]3CCO3)c2c1 [Compound 81, (S)-2-(4-(4-(4-chloro-2-fluorobenzyloxy)-5-fluoropyrimidin-2-yl)-3-fluorobenzyl)-1-(oxetan-2-ylmethyl)-1H-benzo[d]imidazole-6-carboxylic acid]"
,13.8,< 0.015,20.1,"O=C(O)c1ccc2nc(Cc3ccc(-c4nc(OCc5ccc(Cl)cc5F)ncc4F)c(F)c3)n(C[C@@H]3CCO3)c2c1 [Compound 82, (S)-2-(4-(2-(4-chloro-2-fluorobenzyloxy)-5-fluoropyrimidin-4-yl)-3-fluorobenzyl)-1-(oxetan-2-ylmethyl)-1H-benzo[d]imidazole-6-carboxylic acid]"
,27.8,< 0.015,44.6,"O=C(O)c1ccc2nc(Cc3ccc(-c4ccc(F)c(OCc5ccc(Cl)cc5F)n4)c(F)c3)n(C[C@@H]3CCO3)c2c1 [Compound 83, (S)-2-(4-(6-((4-chloro-2-fluorobenzyl)oxy)-5-fluoropyridin-2-yl)-3-fluorobenzyl)-1-(oxetan-2-ylmethyl)-1H-benzo[d]imidazole-6-carboxylic acid]"
,29.5,< 0.015,37,O=C(O)c1ccc2nc(Cc3ccc(-c4ccc(F)c(OCc5ccc(Cl)cc5F)c4)cc3F)n(C[C@@H]3CCO3)c2c1 [Compound 85]
,26.6,< 0.015,,"O=C(O)c1ccc2nc(CN3CC=C(c4csc(OCc5ccc(Cl)cc5F)n4)CC3)n(C[C@@H]3CCO3)c2c1 [Compound 247, (S)-2-((4-(2-((4-chloro-2-fluorobenzyl)oxy)thiazol-4-yl)-3,6-dihydropyridin-1(2H)-yl)methyl)-1-(oxetan-2-ylmethyl)-1H-benzo[d]imidazole-6-carboxylic acid]"
,,< 0.015,29.6,"N#Cc1ccc(COc2nc(-c3ccc(Cc4nc5ccc(C(=O)O)nc5n4C[C@@H]4CCO4)cc3F)ccc2F)c(F)c1 [Compound 289, (S)-2-(4-(6-((4-cyano-2-fluorobenzyl)oxy)-5-fluoropyridin-2-yl)-3-fluorobenzyl)-3-(oxetan-2-ylmethyl)-3H-imidazo[4,5-b]pyridine-5-carboxylic acid]"
,,< 0.015,32,"N#Cc1ccc(COc2cccc(-c3ccc(Cc4nc5ccc(C(=O)O)nc5n4C[C@@H]4CCO4)cc3F)n2)c(F)c1 [Compound 293, (S)-2-(4-(6-((4-cyano-2-fluorobenzyl)oxy)pyridin-2-yl)-3-fluorobenzyl)-3-(oxetan-2-ylmethyl)-3H-imidazo[4,5-b]pyridine-5-carboxylic acid]"
,,< 0.015,31.8,"O=C(O)c1ccc2nc(Cc3ccc(-c4ccc(F)c(OCc5ccc(Cl)cc5F)n4)c(F)c3)n(C[C@@H]3CCO3)c2n1 [Compound 305, (S)-2-(4-(6-((4-chloro-2-fluorobenzyl)oxy)-5-fluoropyridin-2-yl)-3-fluorobenzyl)-3-(oxetan-2-ylmethyl)-3H-imidazo[4,5-b]pyridine-5-carboxylic acid]"
19.4,,< 0.015,,"O=C(O)c1ccc2nc(Cn3ccc(-c4cccc(OCc5ccc(Cl)cc5F)n4)cc3=O)n(C[C@@H]3CCO3)c2c1 [Compound 323, (S)-2-((6-((4-chloro-2-fluorobenzyl)oxy)-2′-oxo-[2,4′-bipyridin]-1′(2′H)-yl)methyl)-1-(oxetan-2-ylmethyl)-1H-benzo[d]imidazole-6-carboxylic acid]"
,,< 0.015,17.9,"O=C(O)c1ccc2nc(CN3CC=C(c4scnc4OCc4ccc(Cl)cc4F)CC3)n(C[C@@H]3CCO3)c2c1 [Compound 331, (S)-2-((4-(4-((4-chloro-2-fluorobenzyl)oxy)thiazol-5-yl)-3,6-dihydropyridin-1(2H)-yl)methyl)-1-(oxetan-2-ylmethyl)-1H-benzo[d]imidazole-6-carboxylic acid]"
,,0.015 to 0.15,9.75,"N#Cc1ccc(COc2ncccc2C2=CCN(Cc3nc4ccc(C(=O)O)cc4n3C[C@@H]3CCO3)CC2)c(F)c1 [Compound 333, (S)-2-((4-(2-(4-cyano-2-fluorobenzyloxy)pyridin-3-yl)-5,6-dihydropyridin-1(2H)-yl)methyl)-1-(oxetan-2-ylmethyl)-1H-benzo[d]imidazole-6-carboxylic acid]"
,,< 0.015,26.6,"CC1(c2ccc(C#N)cc2F)Oc2cccc(C3=CCN(Cc4nc5ccc(C(=O)O)cc5n4C[C@@H]4CCO4)CC3)c2O1 (stereo partly drawn) [Compound 334, 2-((4-(2-(4-cyano-2-fluorophenyl)-2-methylbenzo[d][1,3]dioxol-4-yl)-3,6-dihydropyridin-1(2H)-yl)methyl)-1-(((S)-oxetan-2-yl)methyl)-1H-benzo[d]imidazole-6-carboxylic acid]"

Structure (SMILES),β-arrestin recruitment Bmax (%) (GLP1R [1]),β-arrestin internalization Bmax (POC) (GLP1R [2]),EC50 (GLP1R [3]) [µM],Emax (GLP1R [1]) [%]
"N#Cc1ccc(COc2cccc(-c3ccc(Cc4nc5ccc(C(=O)O)cc5n4C[C@@H]4CCO4)cc3F)n2)c(F)c1 [Compound 75, (S)-2-(4-(6-(4-cyano-2-fluorobenzyloxy)pyridin-2-yl)-3-fluorobenzyl)-1-(oxetan-2-ylmethyl)-1H-benzo[d]imidazole-6-carboxylic acid]",,20.8 ± 10.2,< 0.015,30.4 ± 1.15
"O=C(O)c1ccc2nc(CN3CC=C(c4csnc4OCc4ccc(Cl)cc4F)CC3)n(C[C@@H]3CCO3)c2c1 [Compound 332, (S)-2-((4-(3-(4-chloro-2-fluorobenzyloxy)isothiazol-4-yl)-5,6-dihydropyridin-(2H)-yl)methyl)-1-(oxetan-2-ylmethyl)-1H-benzo[d]imidazole-6-carboxylic acid]",,,< 0.015,14.5
